Measurements: patent US20230174484A1, “ANTAGONISTS OF GPR39 PROTEIN” (Oregon Health & Science University, priority 2020, published 2023)

Target: T1, human GPR39 receptor (Homo sapiens, UniProt O43194)
T1 construct: PC3 Cells, Expressing the Endogenous Human GPR39 Receptor; endogenous in cells; host or cells: PC3 (human prostate adenocarcinoma) cells
T1 sequence (O43194 1-453): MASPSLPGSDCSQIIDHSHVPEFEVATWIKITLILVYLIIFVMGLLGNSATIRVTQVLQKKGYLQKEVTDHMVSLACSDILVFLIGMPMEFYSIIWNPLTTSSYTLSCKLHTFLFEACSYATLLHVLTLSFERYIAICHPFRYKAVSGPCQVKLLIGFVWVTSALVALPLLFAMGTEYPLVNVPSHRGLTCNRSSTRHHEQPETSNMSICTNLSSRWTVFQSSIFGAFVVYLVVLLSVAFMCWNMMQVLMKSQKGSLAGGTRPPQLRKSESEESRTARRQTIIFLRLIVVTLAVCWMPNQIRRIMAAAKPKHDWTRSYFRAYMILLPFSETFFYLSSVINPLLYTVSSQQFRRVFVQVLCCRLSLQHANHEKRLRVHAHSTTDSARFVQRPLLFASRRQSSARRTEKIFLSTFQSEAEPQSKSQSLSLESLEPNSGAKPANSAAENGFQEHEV
Experiment: Measurement of intracellular calcium response in PC3 cells (FLIPR), antagonism of the C3 agonist response
Format: cell-based
Conditions: functional pKi (modified Cheng-Prusoff), inhibition of the C3 (TC-G 1008) response at EC90, 30 μM ZnCl2, read-out: fpKi activity
Procedure: Human prostate adenocarcinoma (PC3) cells endogenously expressing human GPR39 receptor were seeded into black walls clear-base 384-well plates at a density of 7,500 cells per well in DM EM (Low Glucose) supplemented with 10% heat-inactivated foetal bovine serum and 1% of Pen/Strep and grown overnight at 37° C., 5% CO2. After washing with assay buffer (20 mM HEPES, 137 mM NaCI, 5.4 mM KCI, 10 mM glucose, 0.8 mM MgSO4, 1.3 mM CaCl2, 0.3 mM Na2HPO4, 0.4 mM KH2PO4 4.2 mM NaHCO3, pH 7.4), cells were incubated with Calcium-6 probe (Molecular Devices) at 37° C. for 2h and then equilibrated at RT for 30 minutes on metal block. The fluorescence was measured in real time by Fluorometric Imaging Plate Reader (FLIPR TETRA, Molecular Devices) (excitation wavelength at 470-495 nm, emission wavelength at 515-575 nm).
Compounds of invention were serially diluted in neat DMSO at 1000 fold concentrations and plated into 384-well plates and then 200-fold diluted in assay buffer containing 150 uM ZnCl2 (30 μM final concentration) and […].
Fluorescence was monitored throughout the run assay. The peak of Ca2+stimulation (baseline subtracted) was expressed as percentage of the maximal inhibition of the EC90 C3 response and was plotted versus the concentration of test compound. Curve fitting and IC50 estimations are carried out using a four-parameter logistic model using XLfit Software.
The potency of compounds was reported as functional pKi (—Log10Ki) obtained using the modified Cheng-Prusoff relationship (Cheng, Y., Prusoff, W. H. 1973.)
fKi =IC50/(1+[L]/EC50) where IC50 is the concentration of antagonist required for 50% inhibition of the maximum response, [L] is the concentration of the agonist used (EC90) and EC50 is the concentration of agonist need to induced 50% of the maximum response (obtained in each experimental plate).
An fpKi less than 5.2 is reported as “+/±”. An fpKi ranging from 5.2 to 5.9 is reported as “+”. An fpKi from 6.0 to 6.5 is reported as “++”. An fpKi from 6.6 to 7.2 is reported as “+++”. An fpKi equal to or greater than 7.3 is reported as “++++”.

Ki [µM]	Structure (SMILES)
0.0631 to 0.251	C[C@@H]1C[C@H](C)CN(c2cc(NC(=O)C3CC3)ccc2-c2nnc(Sc3ccccc3)n2C)C1 [Example 114b, N-[3-(3,5-dimethylpiperidin-1-yl)-4-(4-methyl-5-phenylsulfanyl-1,2,4-triazol-3-yl)phenyl]cyclopropanecarboxamide]
0.316 to 1	CN1CCN(C(=O)c2ccc(NC(=O)C3CC3)cc2N2CCC(C(F)(F)F)C2)C(c2ccccc2)C1 (single isomer, unassigned) [Example 199b, (2S, 3R) or (2R, 3S) or (2R, 3R) or (2S, 3S) N-[4-(4-methyl-2-phenylpiperazine-1-carbonyl)-3-[3-(trifluoromethyl)pyrrolidin-1-yl]phenyl]cyclopropanecarboxamide]
≤ 0.0501	CC1CC(C)CN(c2cc(NC(=O)C3CC3)ccc2C(=O)N2CCN(C)CC2c2ccccc2)C1 (racemic) [Example 68c, Syn N-[3-[3,5-dimethylpiperidin-1-yl]-4-(4-methyl-2-phenylpiperazine-1-carbonyl)phenyl]cyclopropanecarboxamide]
≤ 0.0501	CC1CCN(c2cc(NC(=O)C3CC3)ccc2C(=O)N2CCN(C)CC2c2ccccc2)C1 (single isomer, unassigned) [Example 64c, (2S, 3R) or (2R, 3S) or (2R, 3R) or (2S, 3S) N-[4-(4-methyl-2-phenylpiperazine-1-carbonyl)-3-(3-methylpyrrolidin-1-yl)phenyl] cyclopropanecarboxamide]
0.0631 to 0.251	CCCN1CCN(C(=O)c2ccc(NC(=O)C3CC3)cc2N2C[C@@H](C)C[C@H](C)C2)CC1 (relative stereo) [Example 14b]
≤ 0.0501	CN1CCN(C(=O)c2ccc(NC(=O)C3CC3)cc2N2CCCC2)C(c2cccc(Cl)c2)C1 (racemic) [Example 171c, N-[4-[2-(3-chlorophenyl)-4-methylpiperazine-1-carbonyl]-3-pyrrolidin-1-ylphenyl]cyclopropanecarboxamide]
0.0631 to 0.251	CN1CCN(C(=O)c2ccc(NC(=O)C3CC3)cc2N2CCCCC2)C(c2ccccc2)C1 (racemic) [Example 201c, N-[4-(4-methyl-2-phenylpiperazine-1-carbonyl)-3-piperidin-1-ylphenyl]cyclopropanecarboxamide]
0.0631 to 0.251	CN1CCN(C(=O)c2ccc(NC(=O)C3CC3)nc2N2CCCC2)C(c2ccccc2)C1 (racemic) [Example 149c, N-[45-(4-methyl-2-phenylpiperazine-1-carbonyl)-6-pyrrolidin-1-ylpyridin-2-yl]cyclopropanecarboxamide]

More lines, now with the values behind:

Structure (SMILES)	Ki [µM]
O=C(Nc1ccc(C(=O)N2CCC(C(F)(F)F)CC2)c(N2CCCC2)c1)C1CC1 [Example 61, N-[3-pyrrolidin-1-yl-4-[4-(trifluoromethyl)piperidine-1-carbonyl]phenyl]cyclopropanecarboxamide]	0.0631 to 0.251
CCCN1CCN(C(=O)c2ccc(NC(=O)C3CC3)cc2N2CCCC2)CC1 [Example 16, N-[4-(4-propylpiperazine-1-carbonyl)-3-(pyrrolidin-1-yl)phenyl] Cyclopropanecarboxamide]	0.0631 to 0.251
CS(=O)(=O)C1CCN(C(=O)c2ccc(NC(=O)C3CC3)cc2N2CCCC2)CC1 [Example 218, N-[4-(4-methylsulfonylpiperidine-1-carbonyl)-3-pyrrolidin-1-ylphenyl]cyclopropanecarboxamide]	1.26 to 6.31
O=C(Nc1ccc(C(=O)N2CCS(=O)(=O)CC2)c(N2CC3CC(C3)C2)c1)C1CC1 [Example 195, N-[3-(3-azabicyclo[3.1.1]heptan-3-yl)-4-(1,1-dioxo-1,4-thiazinane-4-carbonyl)phenyl]cyclopropanecarboxamide]	0.0631 to 0.251
CN1CCN(C(=O)c2ccc(NC(=O)C3CC3)cc2N2CCCC2)C(c2cnn(C)c2)C1 (racemic) [Example 87, N-[4-[4-methyl-2-(1-methylpyrazol-4-yl)piperazine-1-carbonyl]-3-pyrrolidin-1-ylphenyl]Cyclopropanecarboxamide]	0.316 to 1
CN1CCN(C(=O)c2ccc(NC(=O)C3CC3)cc2N2CCC3(COC3)C2)C(c2ccccc2)C1 (stereo not shown) [Example 203, N-[4-(4-methyl-2-phenylpiperazine-1-carbonyl)-3-(2-oxa-7-azaspiro[3.4]octan-7-yl)phenyl]cyclopropanecarboxamide]	0.316 to 1
CCCN1CCN(C(=O)c2ccc(NC(=O)C3CC3)cc2-c2ccccc2)CC1 [Example 10, N-(6-(4-propylpiperazine-1-carbonyl)-[1,1′-biphenyl]-3-yl)cyclopropanecarboxamide]	1.26 to 6.31
CCCN1CCN(C(=O)c2ccc(NC(C)=O)cc2N2CCCCCC2)CC1 [Example 95, N-(3-(azepan-1-yl)-4-(4-propylpiperazine-1-carbonyl)phenyl)acetamide]	1.26 to 6.31
O=C(Nc1ccc(C(=O)N2CCN(Cc3cc[nH]n3)CC2)c(N2CCCCCC2)c1)C1CC1 [Example 23]	0.316 to 1
O=C(Nc1ccc(C(=O)N2CCS(=O)(=O)CC2)c(-n2ccc(C(F)(F)F)n2)c1)C1CC1 [Example 181, N-[4-(1,1-dioxo-1,4-thiazinane-4-carbonyl)-3-[3-(trifluoromethyl)pyrazol-1-yl]phenyl]cyclopropanecarboxamide]	≤ 0.0501
CN1CCN(C(=O)c2ccc(NC(=O)C3CC3)cc2N2CCCCCC2)C(C(F)(F)F)C1 (stereo not shown) [Example 75, N-[3-(azepan-1-yl)-4-[4-methyl-2-(trifluoromethyl)piperazine-1-carbonyl]phenyl]Cyclopropanecarboxamide]	0.316 to 1
CCCN1CCN(C(=O)c2ccc(NC(=O)C3CC3)cc2NC2CCCC2)CC1 [Example 20, N-[3-(cyclopentylamino)-4-(4-propylpiperazine-1-carbonyl)phenyl]cyclopropanecarboxamide]	0.316 to 1
CN1CCN(C(=O)c2ccc(NC(=O)C3CC3)cc2N2CCC3(COC3)C2)C(c2ccccc2Cl)C1 (racemic) [Example 211, N-[4-[2-(2-chlorophenyl)-4-methylpiperazine-1-carbonyl]-3-(2-oxa-7-azaspiro[3.4]octan-7-yl)phenyl]cyclopropanecarboxamide]	0.0631 to 0.251
CCCN1CCN(C(=O)c2ncc(NC(=O)C3CC3)nc2N2CCCCCC2)CC1 [Example 106, N-[6-(azepan-1-yl)-5-(4-propylpiperazine-1-carbonyl)pyrazin-2-yl]Cyclopropanecarboxamide]	1.26 to 6.31
O=C(Nc1ccc(C(=O)N2CCn3cccc3C2)c(N2CCCCCC2)c1)C1CC1 [Example 39, N-(3-(azepan-1-yl)-4-(1,2,3,4-tetrahydropyrrolo[1,2-a]pyrazine-2-carbonyl)phenyl) cyclopropane carboxamide]	0.0631 to 0.251
O=C(Nc1ccc(C(=O)N2CCOCC2c2ccccc2)c(N2CCCC2)c1)C1CC1 (racemic) [Example 167, N-[4-(3-phenylmorpholine-4-carbonyl)-3-pyrrolidin-1-ylphenyl]cyclopropanecarboxamide]	0.0631 to 0.251
O=C(Nc1ccc(C(=O)N2CCOCC2)c(N2CCCCCC2)c1)C1CC1 [Example 45, N-(3-(azepan-1-yl)-4-(morpholine-4-carbonyl)phenyl)cyclopropanecarboxamide]	0.316 to 1
O=C(Nc1ccc(C(=O)N2CCCCC2c2nnnn2Cc2ccccc2)c(N2CCCCCC2)c1)C1CC1 (stereo not shown) [Example 54, N-[3-(azepan-1-yl)-4-[2-(1-benzyltetrazol-5-yl)piperidine-1-carbonyl]phenyl]cyclopropanecarboxamide]	0.0631 to 0.251
CN1CCN(C(=O)c2ccc(NC(=O)C3CC3)cc2N2CCCC2)C(c2ccncc2Cl)C1 (racemic) [Example 174, N-[4-[2-(3-chloropyridin-4-yl)-4-methylpiperazine-1-carbonyl]-3-pyrrolidin-1-ylphenyl]cyclopropanecarboxamide]	0.0631 to 0.251
CN1CCN(C(=O)c2ccc(NC(=O)C3CC3)cc2N2CCCCCC2)CC1 [Example 49, N-(3-(azepan-1-yl)-4-(4-methylpiperazine-1-carbonyl)phenyl)cyclopropanecarboxamide]	0.0631 to 0.251
